Data from ChEMBL document CHEMBL1201862, “PubChem BioAssay data set” (2004).
The source made the active and inactive calls.

Experiments:
[1] = A cytotoxicity screen of small molecule inhibitors of the PhoP region in Salmonella typhi identified in the primary screen. [Related pubchem assays: 1850, 1864, 1985 ]; assay type: functional
Cytochrome P450 2C9 = Cytochrome P450 2C9 (Homo sapiens, UniProt P11712)
Nonstructural protein 1 = Nonstructural protein 1 (Influenza A virus, UniProt Q194T2); assay type: functional, Influenza A virus (A/California/07/2009(H1N1))
Sequence of Nonstructural protein 1 (Q194T2 whole entry, the tested form may be a part): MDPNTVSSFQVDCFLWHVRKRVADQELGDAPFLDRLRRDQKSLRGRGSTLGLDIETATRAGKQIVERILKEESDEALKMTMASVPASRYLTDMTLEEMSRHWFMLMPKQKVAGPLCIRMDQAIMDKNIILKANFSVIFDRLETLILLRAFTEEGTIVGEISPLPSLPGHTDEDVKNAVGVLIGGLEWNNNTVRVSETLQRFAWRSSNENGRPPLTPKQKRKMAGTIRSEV

[2] = target: T1, Polyadenylate-binding protein 1 (Homo sapiens, UniProt P11940); assay: MLLE domain peptide-binding blockers, IC50 – biochemical, fluorescence polarization, FITC-PAM2 peptide, dose response (AID 602259); assay type: functional; conditions: read-out: IC50_Mean
T1 sequence (P11940 whole entry, the tested form may be a part): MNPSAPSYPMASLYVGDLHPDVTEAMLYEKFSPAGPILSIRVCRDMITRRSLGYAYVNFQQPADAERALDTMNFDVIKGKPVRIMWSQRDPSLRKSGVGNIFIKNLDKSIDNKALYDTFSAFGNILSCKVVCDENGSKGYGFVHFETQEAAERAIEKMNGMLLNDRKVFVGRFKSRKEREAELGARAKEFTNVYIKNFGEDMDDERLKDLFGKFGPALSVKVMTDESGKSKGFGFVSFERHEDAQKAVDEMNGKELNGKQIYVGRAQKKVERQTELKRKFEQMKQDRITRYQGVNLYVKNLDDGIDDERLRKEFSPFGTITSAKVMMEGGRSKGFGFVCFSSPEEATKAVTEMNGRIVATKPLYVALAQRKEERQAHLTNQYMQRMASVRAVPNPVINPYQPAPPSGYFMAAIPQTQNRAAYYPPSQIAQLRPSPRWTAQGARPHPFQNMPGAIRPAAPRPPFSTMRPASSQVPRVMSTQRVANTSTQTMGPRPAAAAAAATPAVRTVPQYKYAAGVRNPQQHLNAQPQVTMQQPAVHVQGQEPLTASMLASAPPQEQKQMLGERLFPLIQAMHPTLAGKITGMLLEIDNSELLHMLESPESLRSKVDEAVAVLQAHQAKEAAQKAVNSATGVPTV

Protein skinhead-1 = target: T2, Protein skinhead-1 (Caenorhabditis elegans, UniProt P34707); assay type: functional
T2 sequence (P34707 whole entry): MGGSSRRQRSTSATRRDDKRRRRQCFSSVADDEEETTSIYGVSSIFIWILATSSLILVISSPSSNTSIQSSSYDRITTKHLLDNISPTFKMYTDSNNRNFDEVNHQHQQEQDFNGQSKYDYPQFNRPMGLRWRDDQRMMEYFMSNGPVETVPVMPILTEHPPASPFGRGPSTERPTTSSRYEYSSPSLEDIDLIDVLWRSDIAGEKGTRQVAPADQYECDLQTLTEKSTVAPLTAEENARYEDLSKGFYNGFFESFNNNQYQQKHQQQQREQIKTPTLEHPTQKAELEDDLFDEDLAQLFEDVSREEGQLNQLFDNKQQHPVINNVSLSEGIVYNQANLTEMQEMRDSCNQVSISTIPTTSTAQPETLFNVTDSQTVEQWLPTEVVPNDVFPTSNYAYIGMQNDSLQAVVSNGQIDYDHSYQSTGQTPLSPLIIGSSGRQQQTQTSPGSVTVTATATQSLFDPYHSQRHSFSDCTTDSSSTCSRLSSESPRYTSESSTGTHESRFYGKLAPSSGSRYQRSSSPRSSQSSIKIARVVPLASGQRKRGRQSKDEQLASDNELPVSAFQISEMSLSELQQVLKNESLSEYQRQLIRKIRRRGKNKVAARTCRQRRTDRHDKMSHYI

[3] = target: T1, Polyadenylate-binding protein 1; assay: MLLE binding blockers, Cy5 peptide tracer – biochemical, fluorescence polarization, Cy5-PAM2 peptide, secondary, miRNA deadenylation inhibitor project, dose response (AID 602260); assay type: functional; conditions: read-out: IC50_Mean
[4] = target: T3, Heat shock factor protein 1 (Mus musculus, UniProt P38532); assay: decrease of HSF1-responsive luciferase luminescence – cell-based, NIH3T3, dose retest, confirmation (AID 2382); assay type: functional;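 also: NIH3T3 fibroblasts with HSF1-driven luciferase reporter stressed by proteasome inhibitor MG132; luminescence from HSF1-driven luciferase expression after 8 hours of MG132 stress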
T3 sequence (P38532 whole entry): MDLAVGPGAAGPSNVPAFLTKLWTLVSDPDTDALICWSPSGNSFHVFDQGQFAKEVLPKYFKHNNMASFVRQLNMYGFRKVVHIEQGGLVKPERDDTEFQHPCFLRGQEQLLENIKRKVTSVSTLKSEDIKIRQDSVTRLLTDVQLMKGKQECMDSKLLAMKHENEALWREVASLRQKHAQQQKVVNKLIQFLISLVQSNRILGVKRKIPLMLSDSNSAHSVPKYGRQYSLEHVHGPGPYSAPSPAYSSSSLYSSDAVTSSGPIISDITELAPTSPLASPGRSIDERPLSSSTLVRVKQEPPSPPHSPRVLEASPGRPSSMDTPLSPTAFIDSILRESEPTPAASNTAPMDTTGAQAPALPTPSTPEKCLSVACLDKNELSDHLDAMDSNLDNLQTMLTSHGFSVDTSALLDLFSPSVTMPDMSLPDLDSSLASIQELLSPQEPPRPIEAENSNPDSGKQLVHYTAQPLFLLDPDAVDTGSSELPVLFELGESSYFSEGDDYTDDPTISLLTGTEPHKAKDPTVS

[5] = A Cell Based Secondary Assay To Explore Cytotoxicity of Compounds that Sensitize Mycobacterium Tuberculosis to Beta-Lactam Antibiotics.; assay type: functional
Cytochrome P450 3A4 = Cytochrome P450 3A4 (Homo sapiens, UniProt P08684);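 also: CYP3A4 tested as one member of a cytochrome P450 panel screen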
Sequence of Cytochrome P450 3A4 (P08684 whole entry): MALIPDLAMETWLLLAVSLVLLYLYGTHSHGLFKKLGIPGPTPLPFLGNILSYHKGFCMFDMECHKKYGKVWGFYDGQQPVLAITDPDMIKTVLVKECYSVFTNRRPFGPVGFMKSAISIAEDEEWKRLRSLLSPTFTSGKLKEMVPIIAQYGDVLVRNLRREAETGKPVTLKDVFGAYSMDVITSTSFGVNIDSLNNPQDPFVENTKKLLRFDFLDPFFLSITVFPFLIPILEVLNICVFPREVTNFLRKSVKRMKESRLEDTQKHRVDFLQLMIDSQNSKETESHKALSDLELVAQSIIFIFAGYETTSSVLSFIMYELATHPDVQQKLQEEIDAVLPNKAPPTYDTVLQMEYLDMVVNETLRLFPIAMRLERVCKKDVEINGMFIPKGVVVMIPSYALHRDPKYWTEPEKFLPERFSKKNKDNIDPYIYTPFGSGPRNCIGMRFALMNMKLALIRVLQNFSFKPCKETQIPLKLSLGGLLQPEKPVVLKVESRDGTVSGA

Sequence of Cytochrome P450 2C9 (P11712 whole entry): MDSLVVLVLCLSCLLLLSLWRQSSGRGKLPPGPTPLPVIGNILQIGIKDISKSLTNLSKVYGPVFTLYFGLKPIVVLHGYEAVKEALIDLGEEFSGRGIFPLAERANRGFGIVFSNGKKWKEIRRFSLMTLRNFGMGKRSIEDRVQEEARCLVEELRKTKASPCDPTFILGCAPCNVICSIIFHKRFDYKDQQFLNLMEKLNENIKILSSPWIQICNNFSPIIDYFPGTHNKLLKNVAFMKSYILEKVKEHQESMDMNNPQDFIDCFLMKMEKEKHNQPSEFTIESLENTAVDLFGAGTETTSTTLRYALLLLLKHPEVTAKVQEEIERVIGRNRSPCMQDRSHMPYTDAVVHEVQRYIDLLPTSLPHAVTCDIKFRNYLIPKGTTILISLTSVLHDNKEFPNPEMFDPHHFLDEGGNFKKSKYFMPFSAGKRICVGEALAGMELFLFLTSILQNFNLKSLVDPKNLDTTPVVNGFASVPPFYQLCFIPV

Row | SMILES | EC50 [1] | CC50 [5] | other results
1 | COc1ccccc1CNCCc1ccc(F)cc1 | > 50 µM (active) | – | –
2 | Nc1ncnc2c1ncn2[C@@H]1CCCO1 | – | – | AC50 (Cytochrome P450 2C9): inconclusive
3 | Cc1cc2cc(CN=C(S)Nc3ccc(OC(F)(F)F)cc3)ccc2n1C | – | – | IC50 (Nonstructural protein 1): > 100 µM (active); IC50 [2]: > 66 µM (inactive); IC50 (Protein skinhead-1): > 100 µM (inactive); IC50 [3]: > 66 µM (inactive)
4 | O=C(Oc1c(-c2ccccc2Cl)oc2ccccc2c1=O)c1ccc(Cl)cc1 | – | > 40 µM (active) | EC50 [4]: > 195 µM (not active)
5 | Cc1c(/C=N/NC(=O)c2ccc3c(c2)OCO3)cnn1C | > 50 µM (active) | – | AC50 (Cytochrome P450 3A4): 22.4 µM (inconclusive)
6 | COc1cccc(C(=O)Nc2cccc(SC)c2)c1 | > 50 µM (active) | – | –
7 | O=C(NCC(c1ccco1)N1CCc2ccccc21)c1ccc([N+](=O)[O-])cc1 (stereo not given) | – | > 40 µM (active) | –
8 | CCOc1cccc(/C=N/Nc2nc(N3CCCC3)nc(N3CCCC3)n2)c1O | – | > 40 µM (active) | –
9 | O=C(/C=C/c1cccnc1)c1ccc(O)cc1 | – | 17.5 µM (active) | –
10 | CCOc1cc(C(c2c(C)n[nH]c2O)c2c(C)n[nH]c2O)cc([N+](=O)[O-])c1O | > 50 µM (active) | – | –
